From patent US20240010635A1, “NOVEL INDIRUBIN DERIVATIVES HAVING HETEROBICYCLIC MOIETIES AND THE USE THEREOF” (priority 2022, published 2024)
Substitutions are numbered along the chain they refer to.

Assays:
Assay type in all cases: biochemical
[1] = target: T1, FLT3 WT (Homo sapiens, UniProt P36888); experiment: ADP-Glo kinase assay, FLT3 WT; conditions: recombinant FLT3, ADP-Glo, 120 min room temperature; read-out: Enzyme activity (IC50, nM) FLT3 WT
T1 construct: Recombinant proteins containing the FLT3 and FLT3 (D835Y) domains were purchased from Promega; purchased Promega V4064
T1 sequence (P36888 610-943 limits assumed): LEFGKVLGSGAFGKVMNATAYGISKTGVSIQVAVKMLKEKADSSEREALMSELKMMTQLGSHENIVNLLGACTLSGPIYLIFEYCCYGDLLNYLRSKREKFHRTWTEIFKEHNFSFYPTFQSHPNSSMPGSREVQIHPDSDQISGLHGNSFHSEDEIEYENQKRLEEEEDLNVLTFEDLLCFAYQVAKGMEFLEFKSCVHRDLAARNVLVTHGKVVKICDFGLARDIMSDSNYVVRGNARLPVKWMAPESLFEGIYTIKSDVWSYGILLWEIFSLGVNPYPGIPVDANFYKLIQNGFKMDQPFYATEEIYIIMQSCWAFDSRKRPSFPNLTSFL
Protocol: (§1) FLT3 activity inhibition was measured by ADP-Glo kinase assay (Promega, cat #V9101). ADP-Glo kinase analysis method is an emission ADP detect method which measures kinase activity by quantification of ADP amount produced during kinase reaction and provides uniform high-throughput screening method.
(§2) Analysis performed in two steps. First, after kinase reaction, ADP-Glo™ reagent of equal volume was added to finish kinase reaction, and then the rest ATP was exhausted. Second, Kinase Detection Reagent was added to convert ADP to ATP and newly synthesized ATP was measured by luciferase/luciferin reaction at the same time. Generated light was measured by using luminometer. The measured luminescence amount can be applied to the ATP→ADP standard conversion curve to confirm the correlation with the ADP concentration.
(§3) Recombinant proteins containing the FLT3 and FLT3 (D835Y) domains were purchased from Promega (cat #V4064, cat #V4514), respectively. According to the manufacturer's instructions, optimal enzyme, ATP, and substrate concentration were established using the ADP-Glo™ Kinase Assay (Promega, USA). Kinase reaction buffer 5× (200 mM Tris-HCl, pH 7.5, 100 mM MgCl2, 0.5 mg/ml BSA) was diluted and used, and the diluted compound of the present invention (5×, 1 μl), FLT3 enzyme or FLT3/D835Y enzyme (2.5×, 2 μl) and substrate/ATP mixture (2.5×, 2 μl), were mixed sequentially and reacted at room temperature for 120 minutes. Then, ADP-Glo™ Reagent (5 μl) was added and reacted for 40 min at room temperature. Finally, after adding a reagent for detection (Kinase Detection Reagent, 10 μl), reacting at room temperature for 30 min, and then phosphorylation of substrate peptide was measured by measuring luciferase signal (Integration time 0.5-1 second) using SpectraMax ID5 reader (Molecular Devices LLC., San Jose, CA, USA). IC50 was calculated by nonlinear regression using Prism version 5.01 (GrapghPad).

[2] = target: T2, RET V804L (Homo sapiens, UniProt P07949, V804L); experiment: ADP-Glo kinase assay, RET V804L; conditions: recombinant RET (V804L), 120 min room temperature, read-out: Enzyme activity (IC50, nM) RET V804L
T2 construct: Recombinant proteins containing RET wt, RET (M918T) and RET (V804L) domains were purchased from Promega; purchased Promega V4473
T2 sequence (P07949 724-1016 V804L limits assumed): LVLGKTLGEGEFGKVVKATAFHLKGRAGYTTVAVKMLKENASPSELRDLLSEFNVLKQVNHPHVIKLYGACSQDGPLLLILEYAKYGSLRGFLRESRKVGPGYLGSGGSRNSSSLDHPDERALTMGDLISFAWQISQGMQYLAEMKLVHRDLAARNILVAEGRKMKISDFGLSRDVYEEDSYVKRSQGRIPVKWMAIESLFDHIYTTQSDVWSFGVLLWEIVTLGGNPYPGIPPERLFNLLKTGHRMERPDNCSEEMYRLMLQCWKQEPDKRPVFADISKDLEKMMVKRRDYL
Protocol: as §2
(§4) Recombinant proteins containing RET wt, RET (M918T) and RET (V804L) domains were purchased from Promega (cat #V8061, cat #VA7274, cat #V4473), respectively. According to the manufacturer's instructions, optimal enzyme, ATP, and substrate concentration were established using ADP-Glo™ Kinase Assay (Promega, USA). […] Then, ADP-Glo™ Reagent (5 μl) was added and reacted at room temperature for further 40 min. Lastly, Kinase Detection Reagent (10 μl) was added and reacted for 30 min more at room temperature, and then phosphorylation of substrate peptide was measured by measuring luciferase signal (Integration time 0.5-1 second) using SpectraMax ID5 reader (Molecular Devices LLC., San Jose, CA, USA). IC50 was calculated by nonlinear regression using Prism version 5.01 (GrapghPad).

[3] = target: T3, FLT3 D835Y (Homo sapiens, UniProt P36888, D835Y); experiment: ADP-Glo kinase assay, FLT3 D835Y; conditions: recombinant FLT3 (D835Y), 120 min room temperature, read-out: Enzyme activity (IC50, nM) FLT3 D835Y
T3 construct: Recombinant proteins containing the FLT3 and FLT3 (D835Y) domains were purchased from Promega; purchased Promega V4514
T3 sequence (P36888 610-943 D835Y limits assumed): T1 sequence (P36888 610-943 limits assumed) with D226Y
Protocol: as §1, §2, §3

[4] = target: T4, RET WT (Homo sapiens, UniProt P07949); experiment: ADP-Glo kinase assay, RET WT; conditions: recombinant RET wt, 120 min room temperature, read-out: Enzyme activity (IC50, nM) RET WT
T4 construct: Recombinant proteins containing RET wt, RET (M918T) and RET (V804L) domains were purchased from Promega; purchased Promega V8061
T4 sequence (P07949 724-1016 limits assumed): T2 sequence (P07949 724-1016 V804L limits assumed) with L81V
Protocol: as §2, §4

SMILES | IC50 [1] | IC50 [2] | IC50 [3] | IC50 [4]
O=C1Nc2ccccc2/C1=C1/Nc2ccccc2/C1=N\OCCN1C[C@H]2C[C@@H]1CN2 [Example 4, (2Z,3E)-3-((2-((1R,4R)-2,5-diazabicyclo[2.2.1]heptan-2-yl)ethoxy)imino)-[2,3′-biindolinylidene]-2′-one] | 1.37 nM | 0.212 nM | 0.216 nM | 0.423 nM
O=C1Nc2ccc(F)cc2/C1=C1/Nc2ccccc2/C1=N\OCC(=O)N1C[C@H]2C[C@@H]1CN2 [Example 20, (2Z,3E)-3-((2-((1R,4R)-2,5-diazabicyclo[2.2.1]heptan-2-yl)-2-oxoethoxy)imino)-5′-fluoro-[2,3′-biindolinylidene]-2′-one] | 2.94 nM | 1.04 nM | 0.271 nM | 1.88 nM
O=C1Nc2ccc(F)cc2/C1=C1/Nc2ccccc2/C1=N\OCCN1C[C@@H]2C[C@H]1CN2 [Example 10, (2Z,3E)-3-((2-((1S,4S)-2,5-diazabicyclo[2.2.1]heptan-2-yl)ethoxy)imino)-5′-fluoro-[2,3′-biindolinylidene]-2′-one] | 2.41 nM | 0.511 nM | 0.428 nM | 0.815 nM
N[C@@H]1[C@H]2CN(CCO/N=C3/C(=C4/C(=O)Nc5ccccc54)Nc4ccccc43)C[C@@H]12 [Example 3, (2Z,3E)-3-((2-((1R,5S,6s)-6-amino-3-azabicyclo[3.1.0]hexan-3-yl)ethoxy)imino)-[2,3′-biindolinylidene]-2′-one] | 3.78 nM | 1.27 nM | 0.303 nM | 0.969 nM
